Our source for the ED50 values is patent EP0482657A2, “Cephem compounds, their production and use” (Takeda Chemical Industries, Ltd., priority 1990, dated 1992).

The test system of one test is Escherichia coli O-111. Nature of the test: Therapeutic effects against intraperitoneal infections in mice (oral administration). In kind it is in vivo. To be noted: O111, po, 120 h; Slc:ICR mice infected intraperitoneally with Escherichia coli O-111; once orally immediately after infection; survival over five days; Reed and Münch; in terms of potency of the said cephem carboxylic acid. The method, then: (§1) Infections in Mice. Test animals: Slc : ICR, 4-week old male mice (body weight 20 to 22 g) were employed. Induction of experimental infections (infected mice):
(§2) Staphylococcus aureus 308A-1 or Escherichia coli 0-111 was cultured in Brain Heart Infusion broth (manufactured by Difco Co.) at 37°C for 20 hours. Each of the organisms was suspended in a 8% mucin solution (manufactured by Difco in) at a concentration of 2 x 10⁸ Colony Forming Units (hereinafter abbreviated as "CFU")/ml and 2 x 10⁵ CFU/ml, respectively, and 0.5 ml of each suspension was administered intraperitoneally. Administration of Test compounds: 25 mg of each test compound was dissolved in 0.5 ml of DMSO, and each solution was diluted in distilled water to prepare two fold dilutions of each compound in the range of 2.5 mg/ml - 0.156 mg/ml in the case of infection with Staphylococcus aureus and in the range of 0.156 mg/ml - 0.01 mg/ml in the case of infection with Escherichia coli. A volume of 0.2 ml of each dilution was once administered orally using a tube into the stomach of five mice each in each group immediately after the infection. […] The ED₅₀ value of each compound was that in terms of the potency of the said cephem carboxylic acid.

Test [1] has as its system Staphylococcus aureus 308A-1. The description is as above. Format: in vivo. To be noted: 308A1, po, 120 h; Slc:ICR mice infected intraperitoneally with Staphylococcus aureus 308A-1; once orally immediately after infection; survival over five days; Reed and Münch; in terms of potency of the said cephem carboxylic acid. As to the method: as §1, §2

Take `Cc1nnc(SCC2=C(C(=O)OC(C)OC(=O)OC(C)C)N3C(=O)[C@@H](NC(=O)/C(=N\O)c4csc(N)n4)[C@H]3SC2)s1` (single isomer, unassigned) [Ex.1, 1-(Isopropoxycarbonyloxy)ethyl 7β-[2-(2-aminothiazol-4-yl)-(Z)-2-hydroxyiminoacetamido]-3-[(2-methyl-1,3,4-thiazol-5-yl)thiomethyl]-3-cephem-4-carboxylate]: the ED50 in the test on Escherichia coli O-111 turned out to be 0.141 mg/kg; in test [1] it was 7.02 mg/kg. For `Cc1nnc(SCC2=C(C(=O)OC(C)OC(=O)OC(C)C)N3C(=O)[C@@H](NC(=O)/C(=N\O)c4csc(N)n4)[C@H]3SC2)s1.Cl` (stereo partly drawn) [Ex.2, 1-(Isopropoxycarbonyloxy)ethyl 7β-[2-(2-aminothiazol-4-yl)-(Z)-2-hydroxyiminoacetamido]-3-[(2-methyl-1,3,4-thiadiazol-5-yl)thiomethyl]-3-cephem-4-carboxylate hydrochloride], in that order: 0.13 mg/kg and 5.57 mg/kg. Regarding `Cc1nnc(SCC2=C(C(=O)OC(C)OC(=O)OC3CCCC3)N3C(=O)[C@@H](NC(=O)/C(=N\O)c4csc(N)n4)[C@H]3SC2)s1` (stereo partly drawn) [Ex.3, 1-(Cyclopentyloxycarbonyloxy)ethyl 7β-[2-(2-aminothiazol-4-yl)-(Z)-2-hydroxyiminoacetamido]-3-[(2-methyl-1,3,4-thiadiazol-5-yl)thiomethyl]-3-cephem-4-carboxylate], the ED50 in the test with Escherichia coli O-111 was 0.13 mg/kg; in test [1], 8.84 mg/kg. With `Cc1nnc(SCC2=C(C(=O)OC(C)OC(=O)OC3CCC3)N3C(=O)[C@@H](NC(=O)/C(=N\O)c4csc(N)n4)[C@H]3SC2)s1.Cl` (stereo partly drawn) [Ex.5, 1-(Cyclobutyloxycarbonyloxy)ethyl 7β-[2-(2-aminothiazol-4-yl)-(Z)-2-hydroxyiminoacetamido]-3-[(2-methyl-1,3,4-thiadiazol-5-yl)thiomethyl]-3-cephem-4-carboxylate hydrochloride], in test [1], the 50% effect level (ED50) was put at a dose of 14 mg/kg. On the same count and under the same terms, the figure for `CCC(CC)OC(=O)OC(C)OC(=O)C1=C(CSc2nnc(C)s2)CS[C@@H]2[C@H](NC(=O)/C(=N\O)c3csc(N)n3)C(=O)N12.Cl` (stereo partly drawn) [Ex.6, 1-(1-Ethylpropoxycarbonyloxy)ethyl 7β-[2-(2-aminothiazol-4-yl)-(Z)-2-hydroxyiminoacetamido]-3-[(2-methyl-1,3,4-thiadiazol-5-yl)thiomethyl]-3-cephem-4-carboxylate hydrochloride] is 12.5 mg/kg. For the compound `Cc1nnc(SCC2=C(C(=O)O)N3C(=O)[C@@H](NC(=O)/C(=N\O)c4csc(N)n4)[C@H]3SC2)s1` [GB-A-1587941 Ex.16, 7β-[2-(2-aminothiazol-4-yl)-(Z)-2-hydroxyiminoacetamido]-3-[(2-methyl-1,3,4-thiadiazol-5-yl)thiomethyl]-3-cephem-4-carboxylic acid, reference compound], the ED50 was 1.25 mg/kg in the test on Escherichia coli O-111 and greater than 25 mg/kg in test [1]. For `Cc1nnc(SCC2=C(C(=O)OCOC(=O)C(C)(C)C)N3C(=O)[C@@H](NC(=O)/C(=N\O)c4csc(N)n4)[C@H]3SC2)s1` [JP-A-9698/1985 PR Ex.3, pivaloyloxymethyl ester of the said cephem carboxylic acid, reference compound], in that order: 0.279 mg/kg and 22.3 mg/kg. As for `CCOC(=O)OC(C)OC(=O)C1=C(CSc2nnc(C)s2)CS[C@@H]2[C@H](NC(=O)/C(=N\O)c3csc(N)n3)C(=O)N12` (some centres unmarked) [JP-A-9698/1985 PR Ex.4, 1-(ethoxycarbonyloxy)ethyl ester of the said cephem carboxylic acid, reference compound], the figures for the ED50 (with Escherichia coli O-111; in test [1]) were 0.349 mg/kg and greater than 25 mg/kg, respectively.
